In patent US6083944A, “Quinoline-containing α-ketoamide cysteine and serine protease inhibitors” (Cephalon, Inc., priority 1998, dated 2000):

How the values were obtained:
Type in all cases: biochemical
[1] = biological target: T1, Recombinant human calpain I (Homo sapiens, UniProt P07384); experiment: Inhibition of calpain I (Succ-Leu-Tyr-MNA hydrolysis); conditions: Tables 2-4; pH 7.5
T1 construct: made in house
T1 sequence (P07384 1-714): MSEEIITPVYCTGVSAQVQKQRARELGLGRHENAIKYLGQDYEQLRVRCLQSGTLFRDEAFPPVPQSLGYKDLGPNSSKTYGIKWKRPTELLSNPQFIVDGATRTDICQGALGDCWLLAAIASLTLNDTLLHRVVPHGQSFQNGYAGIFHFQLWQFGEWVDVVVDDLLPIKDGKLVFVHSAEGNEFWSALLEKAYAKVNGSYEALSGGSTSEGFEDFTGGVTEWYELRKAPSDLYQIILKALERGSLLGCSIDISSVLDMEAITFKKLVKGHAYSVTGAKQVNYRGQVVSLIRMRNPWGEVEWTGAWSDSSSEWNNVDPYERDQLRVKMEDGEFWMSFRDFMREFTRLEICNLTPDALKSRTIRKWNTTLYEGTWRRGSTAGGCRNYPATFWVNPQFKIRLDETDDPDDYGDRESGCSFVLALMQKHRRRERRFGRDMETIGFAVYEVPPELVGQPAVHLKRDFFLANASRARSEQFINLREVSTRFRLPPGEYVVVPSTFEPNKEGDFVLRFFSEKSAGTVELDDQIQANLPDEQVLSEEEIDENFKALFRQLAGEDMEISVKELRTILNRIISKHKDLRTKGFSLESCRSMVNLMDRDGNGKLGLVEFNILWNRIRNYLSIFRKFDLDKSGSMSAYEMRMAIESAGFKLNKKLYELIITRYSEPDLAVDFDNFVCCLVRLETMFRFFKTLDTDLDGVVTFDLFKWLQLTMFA
Procedure: (§1) To evaluate inhibitory activity, stock solutions (40 times concentrated) of each compound to be tested were prepared in 100% anhydrous DMSO and 5 μl of each inhibitor preparation was aliquoted into each of three wells of a 96-well plate. Recombinant human calpain I, prepared by the method of Meyer et al. (Biochem. J. 1996, 314: 511-519), was diluted into assay buffer (i.e., 50 mM Tris, 50 mM NaCl, 1 mM EDTA, 1 mM EGTA, and 5 mM β-mercaptoethanol, pH 7.5, including 0.2 mM Succ-Leu-Tyr-MNA), and 175 μl was aliquoted into the same wells containing the independent inhibitor stocks as well as to positive control wells containing 5 μl DMSO, but no compound. To start the reaction, 20 μl of 50 mM CaCl2 in assay buffer was added to all wells of the plate, excepting three, which were used as background signal baseline controls. Substrate hydrolysis was monitored every 5 minutes for a total of 30 minutes. Substrate hydrolysis in the absence of inhibitor was linear for up to 15 minutes.
(§2) Inhibition of calpain I activity was calculated as the percent decrease in the rate of substrate hydrolysis in the presence of inhibitor relative to the rate in its absence. Comparison between the inhibited and control rates was made within the linear range for substrate hydrolysis. The IC50 S of inhibitors (concentration yielding 50% inhibition) were determined from the percent decrease in rates of substrate hydrolysis in the presence of five to seven different concentrations of the test compound. The results were plotted as percent inhibition versus log inhibitor concentration, and the IC50 was calculated by fitting the data to the four-parameter logistic equation shown below using the program GraphPad Prism (GraphPad Software, Inc., San Diego, Calif.).
The parameters a, b, c, and d are defined as follows: a is % inhibition in the absence of inhibitor, b is the slope, c is the IC50, and d is the % inhibition at an infinite concentration of inhibitor.

cathepsin B = biological target: T2, cathepsin B (Homo sapiens, UniProt P07858); experiment: Inhibition of cathepsin B (Cbz-Phe-Arg-AMC hydrolysis); conditions: Table 6; pH 6.0; read-out: Cath. B IC50
T2 construct: purchased Calbiochem 219364
Procedure: as §1, §2
Additionally, the order of reagents added to the plate was altered because the enzyme is consitutively active. Following inhibitor addition to the plates, appropriate 2× concentrated stock dilutions of the enzyme preparations were made in assay buffer and 100 μl added to each well. The assay was initiated by addition of 100 μl of 2× concentrated stock dilution of substrate in assay buffer. Substrate hydrolysis was monitored using a Fluoriskan II (ex=390 nm; em=460 nm).

α-chymotrypsin = biological target: T3, α-chymotrypsin (Bos taurus, UniProt P00766); experiment: Inhibition of serine protease α-chymotrypsin (Succ-Ala-Ala-Pro-Phe-AMC hydrolysis); conditions: Table 6; pH 7.5
T3 construct: purchased Sigma Chem. Co. C-3142
Procedure: as §1, §2
Additionally, because α-chymotrypsin is not a calcium sensitive enzyme and is constitutively active, following addition of inhibitor stocks to the 96 well plates, 100 μl of a 2-fold concentrated stock of enzyme in dilution buffer was first added and the reaction was started by addition of 100 μl of a 2-fold concentrated stock of substrate in assay buffer. Substrate hydrolysis was monitored every 5 minutes up to 30 minutes using a Fluoroskan II (ex=390 nm em=460 nm).

| Compound | IC50 [1] | IC50 (cathepsin B) | IC50 (α-chymotrypsin) |
| --- | --- | --- | --- |
| O=C(NCCNS(=O)(=O)c1ccccc1)C(=O)[C@H](Cc1ccccc1)NC(=O)c1cc(C#Cc2ccccc2)nc2ccccc12 [Example 96] | 0.029 µM | 0.375 µM | 0.066 µM |
| O=C(NCCCNS(=O)(=O)c1ccccc1)C(=O)C(Cc1ccccc1)NC(=O)c1cc(C#Cc2ccccc2)nc2ccccc12 (stereo not drawn) [Example 100] | 0.055 µM | 0.36 µM | 0.036 µM |
| CCONC(=O)C(=O)C(Cc1ccccc1)NC(=O)c1cc(C#Cc2ccccc2)nc2ccccc12 (stereo not drawn) [Example 103] | 0.065 µM | 0.435 µM | 0.38 µM |
| O=C(NOCc1ccccc1)C(=O)C(Cc1ccccc1)NC(=O)c1cc(C#Cc2ccccc2)nc2ccccc12 (stereo not drawn) [Example 104] | 0.06 µM | 0.33 µM | 1.16 µM |
